Experimental data: ChEMBL document CHEMBL1137473, “Pyrazole-based cathepsin S inhibitors with improved cellular potency” (Bioorg Med Chem Lett, 2007)
Calls of active or inactive are those of the source. The rule behind the calls is not given here.

How the values were obtained:
[1] = target: T1, Cathepsin S (Homo sapiens, UniProt P25774); assay: Inhibition of cathepsin S in human JY cells by invariant chain degradation assay; format: cell-based
Target sequence in this assay (P25774 whole entry): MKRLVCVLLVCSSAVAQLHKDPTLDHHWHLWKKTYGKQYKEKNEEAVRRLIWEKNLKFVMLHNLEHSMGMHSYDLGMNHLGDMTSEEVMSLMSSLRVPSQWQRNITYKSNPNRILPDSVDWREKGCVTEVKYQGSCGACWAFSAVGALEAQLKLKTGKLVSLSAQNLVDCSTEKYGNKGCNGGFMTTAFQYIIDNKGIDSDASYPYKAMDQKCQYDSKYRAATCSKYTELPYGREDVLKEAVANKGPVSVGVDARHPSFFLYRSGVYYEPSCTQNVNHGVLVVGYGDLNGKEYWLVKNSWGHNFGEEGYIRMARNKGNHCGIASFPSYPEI

[2] = target: T1, Cathepsin S; assay: Inhibition of human cathepsin S
Target sequence in this assay (P25774 whole entry): as above

[3] = target: T2, Cathepsin E (Homo sapiens) (UniProt P14091); assay: Inhibition of cathepsin E upto 5 uM
T2 sequence (whole entry): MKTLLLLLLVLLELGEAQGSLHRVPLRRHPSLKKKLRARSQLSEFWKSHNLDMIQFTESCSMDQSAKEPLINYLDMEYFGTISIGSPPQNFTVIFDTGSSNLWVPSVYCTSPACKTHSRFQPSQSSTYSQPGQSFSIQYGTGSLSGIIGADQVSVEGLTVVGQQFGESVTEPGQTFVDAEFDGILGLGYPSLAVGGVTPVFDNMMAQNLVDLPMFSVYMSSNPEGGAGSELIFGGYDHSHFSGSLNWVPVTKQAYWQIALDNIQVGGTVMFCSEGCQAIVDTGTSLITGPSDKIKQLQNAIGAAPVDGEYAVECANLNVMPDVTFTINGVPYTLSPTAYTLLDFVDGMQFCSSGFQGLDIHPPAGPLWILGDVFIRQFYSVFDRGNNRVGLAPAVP

[4] = target: Procathepsin L (Homo sapiens) (UniProt P07711); assay: Inhibition of cathepsin L upto 5 uM
[5] = target: T3, Legumain (Homo sapiens) (UniProt Q99538); assay: Inhibition of legumain upto 5 uM
T3 sequence (whole entry): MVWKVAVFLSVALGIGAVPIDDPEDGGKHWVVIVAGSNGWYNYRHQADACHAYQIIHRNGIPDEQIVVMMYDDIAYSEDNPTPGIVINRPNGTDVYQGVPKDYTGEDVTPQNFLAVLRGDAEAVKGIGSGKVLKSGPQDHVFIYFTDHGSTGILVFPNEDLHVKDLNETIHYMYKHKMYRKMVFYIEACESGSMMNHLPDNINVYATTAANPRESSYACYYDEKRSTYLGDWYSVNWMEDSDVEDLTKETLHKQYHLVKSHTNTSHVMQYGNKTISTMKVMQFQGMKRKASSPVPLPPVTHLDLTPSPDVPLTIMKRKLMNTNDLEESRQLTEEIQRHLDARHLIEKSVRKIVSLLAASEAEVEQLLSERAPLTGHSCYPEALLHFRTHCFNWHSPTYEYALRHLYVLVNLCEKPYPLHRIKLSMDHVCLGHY

[6] = target: Cathepsin B (Homo sapiens) (UniProt P07858); assay: Inhibition of cathepsin B upto 5 uM
[7] = target: T1, Cathepsin S; assay: Inhibition of cathepsin S in human JY cells upto 10 uM by invariant chain degradation assay; format: cell-based
Target sequence in this assay (P25774 115-331 limits assumed): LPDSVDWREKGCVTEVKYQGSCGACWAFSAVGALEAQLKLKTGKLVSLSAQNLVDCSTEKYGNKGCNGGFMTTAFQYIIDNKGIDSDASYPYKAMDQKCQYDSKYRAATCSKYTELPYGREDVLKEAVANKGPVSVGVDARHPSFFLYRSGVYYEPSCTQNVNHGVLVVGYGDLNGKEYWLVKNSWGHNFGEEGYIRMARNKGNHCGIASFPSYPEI

Chain of Procathepsin L (Homo sapiens) (P07711 114-333 limits assumed): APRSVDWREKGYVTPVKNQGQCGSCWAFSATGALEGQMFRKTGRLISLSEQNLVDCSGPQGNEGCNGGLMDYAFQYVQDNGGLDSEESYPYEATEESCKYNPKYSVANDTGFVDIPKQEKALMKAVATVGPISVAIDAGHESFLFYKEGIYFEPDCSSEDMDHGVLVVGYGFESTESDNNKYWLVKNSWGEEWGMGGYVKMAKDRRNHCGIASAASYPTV

CS(=O)(=O)N1CCc2c(c(-c3ccc(Br)cc3)nn2CC(O)CN2CCC(c3c[nH]c4ccncc34)CC2)C1 (stereo unspecified)
IC50 [1]: 150 nM | IC50 [2]: 77 nM

CS(=O)(=O)N1CCc2c(c(-c3ccc(C(F)(F)F)cc3)nn2CC(O)CN2CCC(c3c[nH]c4cccnc34)CC2)C1 (stereo unspecified)
Activity [3]: inactive | Activity [4]: inactive | Activity [5]: inactive | Activity [6]: inactive

CN(C)C(=O)c1sc2cc(F)ccc2c1C1CCN(CCCn2nc(-c3ccc(C(F)(F)F)cc3)c3c2CCN(S(C)(=O)=O)C3)CC1
IC50 [2]: 370 nM

CS(=O)(=O)N1CCc2c(c(-c3ccc(C(F)(F)F)cc3)nn2CC(O)CN2CCC(c3c[nH]c4ncccc34)CC2)C1 (stereo unspecified)
Activity [3]: inactive | Activity [4]: inactive | Activity [5]: inactive

CS(=O)(=O)N1CCc2c(c(-c3ccc(Br)cc3)nn2CC(O)CN2CCC(c3c[nH]c4ncccc34)CC2)C1 (stereo unspecified)
IC50 [2]: 195 nM

COC(=O)c1oc2cc(F)ccc2c1C1CCN(CC(O)Cn2nc(-c3ccc(C(F)(F)F)cc3)c3c2CCN(C(C)=O)C3)CC1 (stereo unspecified)
IC50 [2]: 220 nM

CC(=O)N1CCc2c(c(-c3ccc(C(F)(F)F)cc3)nn2CC(O)CN2CCC(c3csc4cc(F)ccc34)CC2)C1 (stereo unspecified)
IC50 [2]: 290 nM

COC(=O)c1sc2cc(F)ccc2c1C1CCN(CC(O)Cn2nc(-c3ccc(C(F)(F)F)cc3)c3c2CCN(C(C)=O)C3)CC1 (stereo unspecified)
IC50 [2]: 140 nM

Cn1c(=O)n(C2CCN(CCCn3nc(-c4ccc(Cl)c(Cl)c4)c4c3CCN(S(C)(=O)=O)C4)CC2)c2ccccc21
IC50 [1]: 800 nM | IC50 [2]: 10 nM

CC(=O)N1CCc2c(c(-c3ccc(C(F)(F)F)cc3)nn2CC(O)CN2CCC(c3c[nH]c4ccc(Cl)cc34)CC2)C1 (stereo unspecified)
Activity [7]: inactive | IC50 [2]: 95 nM

CS(=O)(=O)N1CCc2c(c(-c3ccc(C(F)(F)F)cc3)nn2CC(O)CN2CCC(c3c[nH]c4ccncc34)CC2)C1 (stereo unspecified)
Activity [3]: inactive | Activity [4]: inactive | Activity [5]: inactive | Activity [6]: inactive

CS(=O)(=O)N1CCc2c(c(-c3ccc(C(F)(F)F)cc3)nn2CCCN2CCC(c3c(C(=O)O)sc4cc(F)ccc34)CC2)C1
IC50 [1]: > 10000 nM | IC50 [2]: 100 nM

CS(=O)(=O)N1CCc2c(c(-c3ccc(C(F)(F)F)cc3)nn2CC(O)CN2CCC(c3c[nH]c4cnccc34)CC2)C1 (stereo unspecified)
Activity [3]: inactive | Activity [4]: inactive | Activity [5]: inactive | Activity [6]: inactive

CS(=O)(=O)N1CCc2c(c(-c3ccc(C(F)(F)F)cc3)nn2CC(O)CN2CCC(N3C(=O)COc4ccccc43)CC2)C1 (stereo unspecified)
IC50 [1]: 800 nM | IC50 [2]: 10 nM

CC(=O)N1CCc2c(c(-c3ccc(C(F)(F)F)cc3)nn2CC(O)CN2CCC(c3coc4cc(F)ccc34)CC2)C1 (stereo unspecified)
IC50 [2]: 360 nM

N#Cc1ccccc1N1CCN(CC(Cn2nc(-c3ccc(I)cc3)c3c2CCN(C(N)=O)C3)OC(N)=O)CC1 (stereo unspecified)
IC50 [1]: 800 nM | IC50 [2]: 10 nM

COC(=O)c1sc2cc(F)ccc2c1C1CCN(CCCn2nc(-c3ccc(C(F)(F)F)cc3)c3c2CCN(S(C)(=O)=O)C3)CC1
IC50 [1]: 1800 nM | IC50 [2]: 130 nM

CS(=O)(=O)N1CCc2c(c(-c3ccc(C(F)(F)F)cc3)nn2CC(O)CN2CCC(c3csc4cc(F)ccc34)CC2)C1 (stereo unspecified)
IC50 [2]: 180 nM
